# Reference: ChEMBL document CHEMBL3885881, “DrugMatrix”
# Species on record: Rattus norvegicus
# Experiment: DrugMatrix - Regimen: Daily Repeat
# Type: toxicity, organism-based, Sprague-Dawley
# Set-up: regimen Daily Repeat, gender Male, age 6-8 weeks
# Conditions: in vivo, po, route oral GAVAGE, vehicle .5 % CMC; for ABSOLUTE BASOPHIL / ABSOLUTE EOSINOPHIL / ABSOLUTE LYMPHOCYTE / ABSOLUTE MONOCYTE / ABSOLUTE SEGMENTED NEUTROPHIL / BASOPHIL / EOSINOPHIL / ERYTHROCYTE COUNT / HEMATOCRIT / HEMOGLOBIN / LEUKOCYTE COUNT / LYMPHOCYTE / MEAN CORPUSCULAR HEMOGLOBIN / MEAN CORPUSCULAR HEMOGLOBIN CONCENTRATION / MEAN CORPUSCULAR VOLUME / MONOCYTE / NEUTROPHIL / NUCLEATED RED BLOOD CELLS / PLATELET COUNT: tissue Blood; for ALANINE AMINOTRANSFERASE / ALBUMIN / ALKALINE PHOSPHATASE / ASPARTATE AMINOTRANSFERASE / BLOOD UREA NITROGEN / CARBON DIOXIDE / CHLORIDE / CHOLESTEROL / CREATINE PHOSPHOKINASE / CREATININE / GLUCOSE / LACTATE DEHYDROGENASE / LIPASE / PHOSPHORUS / POTASSIUM / SODIUM / TOTAL BILIRUBIN / TOTAL PROTEIN / URIC ACID: tissue Plasma
# [1] = 100 mg/kg, 72 h, dose level Low, time 3 day
# [2] = 100 mg/kg, 120 h, dose level Low, time 5 day
# [3] = 2000 mg/kg, 72 h, dose level High, time 3 day
# [4] = 2000 mg/kg, 120 h, dose level High, time 5 day
structure (smiles),measurement,setting,value
C#C[C@]1(O)CC[C@H]2[C@@H]3CCC4=Cc5oncc5C[C@]4(C)[C@H]3CC[C@@]21C [DANAZOL],ABSOLUTE BASOPHIL,[1],0 CELLS/uL
same,ABSOLUTE EOSINOPHIL,[1],39 CELLS/uL
same,ABSOLUTE LYMPHOCYTE,[1],10714 CELLS/uL
same,ABSOLUTE MONOCYTE,[1],124 CELLS/uL
same,ABSOLUTE SEGMENTED NEUTROPHIL,[1],1823 CELLS/uL
same,BASOPHIL,[1],0%
same,EOSINOPHIL,[1],0.33%
same,ERYTHROCYTE COUNT,[1],5.54 x10E6/uL
same,HEMATOCRIT,[1],34.17%
same,HEMOGLOBIN,[1],13.43 G/DL
same,LEUKOCYTE COUNT,[1],12.7 x10E3/uL
same,LYMPHOCYTE,[1],84.33%
same,MEAN CORPUSCULAR HEMOGLOBIN,[1],24.3 pg
same,MEAN CORPUSCULAR HEMOGLOBIN CONCENTRATION,[1],39.3 G/DL
same,MEAN CORPUSCULAR VOLUME,[1],61.77 fL
same,MONOCYTE,[1],1%
same,NEUTROPHIL,[1],14.33%
same,NUCLEATED RED BLOOD CELLS,[1],0 /100WBC
same,PLATELET COUNT,[1],1192.67 x10E3/uL
same,ALANINE AMINOTRANSFERASE,[1],44.33 u/L
same,ALBUMIN,[1],4.17 G/DL
same,ALKALINE PHOSPHATASE,[1],377 u/L
same,ASPARTATE AMINOTRANSFERASE,[1],76.33 u/L
same,BLOOD UREA NITROGEN,[1],14.67 mg/dL
same,CARBON DIOXIDE,[1],25.33 mmol/L
same,CHLORIDE,[1],102 MEQ/L
same,CHOLESTEROL,[1],55 mg/dL
same,CREATINE PHOSPHOKINASE,[1],401.33 u/L
same,CREATININE,[1],0.17 mg/dL
same,GLUCOSE,[1],163.33 mg/dL
same,LACTATE DEHYDROGENASE,[1],137 u/L
same,LIPASE,[1],10 u/L
same,PHOSPHORUS,[1],12.07 mg/dL
same,POTASSIUM,[1],6.65 MEQ/L
same,SODIUM,[1],143.7 MEQ/L
same,TOTAL BILIRUBIN,[1],0.2 mg/dL
same,TOTAL PROTEIN,[1],5.97 G/DL
same,URIC ACID,[1],1.73 mg/dL
same,ABSOLUTE BASOPHIL,[2],0 CELLS/uL
same,ABSOLUTE EOSINOPHIL,[2],63 CELLS/uL
same,ABSOLUTE LYMPHOCYTE,[2],13104.67 CELLS/uL
same,ABSOLUTE MONOCYTE,[2],130.33 CELLS/uL
same,ABSOLUTE SEGMENTED NEUTROPHIL,[2],1568.67 CELLS/uL
same,BASOPHIL,[2],0%
same,EOSINOPHIL,[2],0.33%
same,ERYTHROCYTE COUNT,[2],5.51 x10E6/uL
same,HEMATOCRIT,[2],33.67%
same,HEMOGLOBIN,[2],13.33 G/DL
same,LEUKOCYTE COUNT,[2],14.87 x10E3/uL
same,LYMPHOCYTE,[2],88%
same,MEAN CORPUSCULAR HEMOGLOBIN,[2],24.2 pg
same,MEAN CORPUSCULAR HEMOGLOBIN CONCENTRATION,[2],39.57 G/DL
same,MEAN CORPUSCULAR VOLUME,[2],61.07 fL
same,MONOCYTE,[2],1%
same,NEUTROPHIL,[2],10.67%
same,NUCLEATED RED BLOOD CELLS,[2],0 /100WBC
same,PLATELET COUNT,[2],1135.67 x10E3/uL
same,ALANINE AMINOTRANSFERASE,[2],59.67 u/L
same,ALBUMIN,[2],4.07 G/DL
same,ALKALINE PHOSPHATASE,[2],404 u/L
same,ASPARTATE AMINOTRANSFERASE,[2],88.67 u/L
same,BLOOD UREA NITROGEN,[2],15.67 mg/dL
same,CARBON DIOXIDE,[2],28 mmol/L
same,CHLORIDE,[2],99.67 MEQ/L
same,CHOLESTEROL,[2],47.67 mg/dL
same,CREATINE PHOSPHOKINASE,[2],326.33 u/L
same,CREATININE,[2],0.2 mg/dL
same,GLUCOSE,[2],144 mg/dL
same,LACTATE DEHYDROGENASE,[2],320.33 u/L
same,LIPASE,[2],9 u/L
same,PHOSPHORUS,[2],10.93 mg/dL
same,POTASSIUM,[2],6.55 MEQ/L
same,SODIUM,[2],142.4 MEQ/L
same,TOTAL BILIRUBIN,[2],0.23 mg/dL
same,TOTAL PROTEIN,[2],5.87 G/DL
same,URIC ACID,[2],1.63 mg/dL
same,ABSOLUTE BASOPHIL,[3],0 CELLS/uL
same,ABSOLUTE EOSINOPHIL,[3],36.33 CELLS/uL
same,ABSOLUTE LYMPHOCYTE,[3],8482.33 CELLS/uL
same,ABSOLUTE MONOCYTE,[3],63 CELLS/uL
same,ABSOLUTE SEGMENTED NEUTROPHIL,[3],1351.67 CELLS/uL
same,BASOPHIL,[3],0%
same,EOSINOPHIL,[3],0.33%
same,ERYTHROCYTE COUNT,[3],6.02 x10E6/uL
same,HEMATOCRIT,[3],35.6%
same,HEMOGLOBIN,[3],13.97 G/DL
same,LEUKOCYTE COUNT,[3],9.93 x10E3/uL
same,LYMPHOCYTE,[3],85.33%
same,MEAN CORPUSCULAR HEMOGLOBIN,[3],23.23 pg
same,MEAN CORPUSCULAR HEMOGLOBIN CONCENTRATION,[3],39.23 G/DL
same,MEAN CORPUSCULAR VOLUME,[3],59.17 fL
same,MONOCYTE,[3],0.67%
same,NEUTROPHIL,[3],13.67%
same,NUCLEATED RED BLOOD CELLS,[3],0 /100WBC
same,PLATELET COUNT,[3],1115.33 x10E3/uL
same,ALANINE AMINOTRANSFERASE,[3],54.67 u/L
same,ALBUMIN,[3],4.13 G/DL
same,ALKALINE PHOSPHATASE,[3],331 u/L
same,ASPARTATE AMINOTRANSFERASE,[3],125.67 u/L
same,BLOOD UREA NITROGEN,[3],18 mg/dL
same,CARBON DIOXIDE,[3],30 mmol/L
same,CHLORIDE,[3],99.67 MEQ/L
same,CHOLESTEROL,[3],51.67 mg/dL
same,CREATINE PHOSPHOKINASE,[3],222.33 u/L
same,CREATININE,[3],0.15 mg/dL
same,GLUCOSE,[3],144.67 mg/dL
same,LACTATE DEHYDROGENASE,[3],126.33 u/L
same,LIPASE,[3],10 u/L
same,PHOSPHORUS,[3],12 mg/dL
same,POTASSIUM,[3],6.6 MEQ/L
same,SODIUM,[3],143.8 MEQ/L
same,TOTAL BILIRUBIN,[3],0.17 mg/dL
same,TOTAL PROTEIN,[3],6.13 G/DL
same,URIC ACID,[3],1.7 mg/dL
same,ABSOLUTE BASOPHIL,[4],0 CELLS/uL
same,ABSOLUTE EOSINOPHIL,[4],32.33 CELLS/uL
same,ABSOLUTE LYMPHOCYTE,[4],11456 CELLS/uL
same,ABSOLUTE MONOCYTE,[4],0 CELLS/uL
same,ABSOLUTE SEGMENTED NEUTROPHIL,[4],1345 CELLS/uL
same,BASOPHIL,[4],0%
same,EOSINOPHIL,[4],0.33%
same,ERYTHROCYTE COUNT,[4],5.94 x10E6/uL
same,HEMATOCRIT,[4],35.4%
same,HEMOGLOBIN,[4],14 G/DL
same,LEUKOCYTE COUNT,[4],12.83 x10E3/uL
same,LYMPHOCYTE,[4],88.67%
same,MEAN CORPUSCULAR HEMOGLOBIN,[4],23.57 pg
same,MEAN CORPUSCULAR HEMOGLOBIN CONCENTRATION,[4],39.57 G/DL
same,MEAN CORPUSCULAR VOLUME,[4],59.5 fL
same,MONOCYTE,[4],0%
same,NEUTROPHIL,[4],11%
same,NUCLEATED RED BLOOD CELLS,[4],0 /100WBC
same,PLATELET COUNT,[4],1399.33 x10E3/uL
same,ALANINE AMINOTRANSFERASE,[4],62.67 u/L
same,ALBUMIN,[4],4.17 G/DL
same,ALKALINE PHOSPHATASE,[4],326.67 u/L
same,ASPARTATE AMINOTRANSFERASE,[4],68 u/L
same,BLOOD UREA NITROGEN,[4],18.67 mg/dL
same,CARBON DIOXIDE,[4],28.33 mmol/L
same,CHLORIDE,[4],99.33 MEQ/L
same,CHOLESTEROL,[4],45.33 mg/dL
same,CREATINE PHOSPHOKINASE,[4],147.33 u/L
same,CREATININE,[4],0.18 mg/dL
same,GLUCOSE,[4],140.67 mg/dL
same,LACTATE DEHYDROGENASE,[4],121 u/L
same,LIPASE,[4],10 u/L
same,PHOSPHORUS,[4],12.37 mg/dL
same,POTASSIUM,[4],6.84 MEQ/L
same,SODIUM,[4],145.03 MEQ/L
same,TOTAL BILIRUBIN,[4],0.2 mg/dL
same,TOTAL PROTEIN,[4],6.73 G/DL
same,URIC ACID,[4],1.6 mg/dL
